Columns and labels:
[1] = test system: NF-kappa B pathway; assay: Luciferase reporter transfection in mitogen-stimulated Jurkat T-cells, principal component analysis of mitogen profiles; type: cell-based, human; conditions: co-stimulation with anti-CD28, FIG. 4 and FIG. 6
Description: (§1) A human acute lymphoblastic T-cell leukemia cell line (Jurkat) was individually electroporated with 5 ug of a luciferase reporter plasmids driven by the interleukin 2 (IL-2) promoter, the NFAT element of the IL-2 promoter, the CD28RE-AP1 element of the IL-2 promoter, a consensus AP-1 element, a consensus NF-kappa B element, a consensus CRE element and the co-transfection of a Gal4 binding site or upstream activation sequence (UAS) driving a luciferase reporter in combination with either a full length Gal4-p300 fusion (FL) or a N-terminal domain fusion of p300 (amino acids 1-743). Electroporation was performed in a 96 well format with a BTX 96-well gold electrode. Cells were electroporated at 10 millions cells per well with each experiment repeated in triplicates. Following electroporation cells were stimulated with various combination of T-cell mitogens (see Table 1). Cells were harvested 5 hours after stimulation and assayed for luciferase activity by a 96 well luminometer. Data were normalized first for fold activation for each experiment and then inputted into an activation matrix where the data were normalized to percent maximum stimulation. […]

[2] = test system: Jurkat T-cells, 8 promoter elements; assay: Principal component analysis of vector differences between mitogen profiles in the absence and presence of drug (8 promoter elements); type: cell-based, human; conditions: subtraction vectors versus control mitogen profiles, FIG. 5
Description: The mitogen activation profiles under control conditions shown in red FIG. 4 were used to calculate subtraction vectors for each profile in the presence of a drug treatment. These vectors were then analyzed by PCA to show similarities and differences in targeting.
as §1, with “luminometer.” for “luminometer. Data were normalized first for fold activation for each experiment and then inputted into an activation matrix where the data were normalized to percent maximum stimulation.”

Substance: IGF-1: insulin-like growth factor one, a peptide growth factor
- effect on NF-kappa B pathway in activated T-cells [1]: synergies with anti-CD28 stimulation in activated T-cells to upregulate the NF-kappa B pathway
- drug targeting profile (similarity of pathways targeted) [2]: appear to target the same pathway

Reference: patent publication US20050153304A1, “Multivariate profiling of complex biological regulatory pathways” (Government of the USA, as represented by the secretary, …, priority 2003, published 2005)
